Source: the NIST ThermoML archive (doi:10.1016/j.jct.2008.01.001)
± gives the expanded uncertainty stated by the source.

How the values were obtained:
[1] = Liquid; for mass density: 273.15 K, 101.33 kPa; for Normal boiling temperature: Ebulliometric method (Recirculating still)
[2] = refractive index (Na D-line) (dimensionless); conditions: 273.15 K; 101.33 kPa; Liquid; Standard Abbe refractometry

Compound	mass density [1]	Normal boiling temperature [1]	refractive index [2]
CCCCC(CC)CO (stereo not given) [2-ethyl-1-hexanol]	832.3 ± 1.2 kg/m3	185.1 ± 0.02 °C	–
CCC(=O)O [propanoic acid]	992.7 ± 0.4 kg/m3	141.0 ± 0.02 °C	1.3811 ± 0.0004
